According to US20090226398A1, “ANTI-VIRAL COMPOUNDS, COMPOSITIONS, AND METHODS OF USE” (Genelabs Technologies, Inc., priority 2008, published 2009):

What follows are molecules tested on HCV replication (assay: Replicon Assay (Huh-lucubineo-ET cells, luciferase readout)). Settings: Hepatitis C virus; ET (Huh-lucubineo-ET) HCV replicon cell line; luciferase activity 48-72 hours after compound addition; 6 dilutions.
Assay type: cell-based
In short: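 Huh-lucubineo-ET cells stably carrying a firefly luciferase-ubiquitin-neo/NS3-5B ET replicon (adaptive mutations E1202G, T1280I, K1846T) were plated 24 h before compound, then treated at 5 or 50 μM or six 3-fold dilutions. Luciferase read 48-72 h later; % inhibition vs no-compound control, EC50/TC50 from Hill-equation fit.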
COc1ccc(-c2ccc(Cn3cc4nc(-c5cccc(F)c5F)nc-4cn3)c(C(=O)O)c2)c(C(F)(F)F)c1 [Compound 342, 4-[2-(2,3-Difluoro-phenyl)-imidazo[4,5-d]pyridazin-5-ylmethyl]-4′-methoxy-2′-trifluoromethyl-biphenyl-3-carboxylic acid] was tested, and the EC50 was ≥ 50 µM. With Fc1cccc(-c2nc3cnn(Cc4ccc(Oc5ccc(C(F)(F)F)cc5C(F)(F)F)cc4)cc-3n2)c1F [Compound 343, 5-[4-(2,4-Bis-trifluoromethyl-phenoxy)-benzyl]-2-(2,3-difluoro-phenyl)-5H-imidazo[4,5-d]pyridazine] the EC50 was 26.9 µM. Fc1cccc(-c2nc3cnn(Cc4ccc(-c5ccc(Br)c(C(F)(F)F)c5)cc4)cc-3n2)c1F [Compound 344, 5-(4′-Bromo-3′-trifluoromethyl-biphenyl-4-ylmethyl)-2-(2,3-difluoro-phenyl)-5H-imidazo[4,5-d]pyridazine] gave an EC50 of 0.32 µM. [O-][n+]1cc(Cn2cc3nc(-c4cccc(F)c4F)nc-3cn2)ccc1-c1ccc(C(F)(F)F)cc1C(F)(F)F [Compound 345, 5-[6-(2,4-Bis-trifluoromethyl-phenyl)-1-oxy-pyridin-3-ylmethyl]-2-(2,3-difluoro-phenyl)-5H-imidazo[4,5-d]pyridazine] showed an EC50 of 0.08 µM. For COc1ccc(-c2ccc(Cn3cc4nc(-c5cccc(F)c5F)nc-4cn3)cc2C(=O)O)c(C(F)(F)F)c1 [Compound 346, 4-[2-(2,3-Difluoro-phenyl)-imidazo[4,5-d]pyridazin-5-ylmethyl]-4′-methoxy-2′-trifluoromethyl-biphenyl-2-carboxylic acid], the EC50 was ≥ 50 µM. With CCCCc1ccc(-c2ccc(Cn3cc4nc(-c5cccc(F)c5F)nc-4cn3)cn2)cc1C(F)(F)F [Compound 347, 5-[6-(4-Butyl-3-trifluoromethyl-phenyl)-pyridin-3-ylmethyl]-2-(2,3-difluoro-phenyl)-5H-imidazo[4,5-d]pyridazine] the EC50 was 2.59 µM. COc1ccc(-c2ccc(Cn3cc4nc(-c5cccc(F)c5F)nc-4cn3)c(OCCCO)c2)c(C(F)(F)F)c1 [Compound 348, 3-{4-[2-(2,3-Difluoro-phenyl)-imidazo[4,5-d]pyridazin-5-ylmethyl]-4′-methoxy-2′-trifluoromethyl-biphenyl-3-yloxy}-propan-1-ol] gave an EC50 of 0.279 µM. COc1ccc(-c2ccc(Cn3cc4nc(-c5cccc(F)c5F)nc-4cn3)c(OCCCN3CCOCC3)c2)c(C(F)(F)F)c1 [Compound 349, 2-(2,3-Difluoro-phenyl)-5-[4′-methoxy-3-(3-morpholin-4-yl-propoxy)-2′-trifluoromethyl-biphenyl-4-ylmethyl]-5H-imidazo[4,5-d]pyridazine] showed an EC50 of 6.26 µM. Oc1ccc(-c2ccc(Cn3cc4nc(-c5cccc(F)c5F)nc-4cn3)nn2)c(C(F)(F)F)c1 [Compound 350, 4-{6-[2-(2,3-Difluoro-phenyl)-imidazo[4,5-d]pyridazin-5-ylmethyl]-pyridazin-3-yl}-3-trifluoromethyl-phenol] was tested, and the EC50 was ≥ 50 µM. FCCCOc1ccc(-c2ccc(Cn3cc4nc(-c5cccc(F)c5F)nc-4cn3)nn2)c(C(F)(F)F)c1 [Compound 351, 2-(2,3-Difluoro-phenyl)-5-{6-[4-(3-fluoro-propoxy)-2-trifluoromethyl-phenyl]-pyridazin-3-ylmethyl}-5H-imidazo[4,5-d]pyridazine] showed an EC50 of 0.025 µM. FCCOc1ccc(-c2ccc(Cn3cc4nc(-c5cccc(F)c5F)nc-4cn3)nn2)c(C(F)(F)F)c1 [Compound 352, 2-(2,3-Difluoro-phenyl)-5-{6-[4-(2-fluoro-ethoxy)-2-trifluoromethyl-phenyl]-pyridazin-3-ylmethyl}-5H-imidazo[4,5-d]pyridazine] gave an EC50 of 0.0228 µM. For O=S(=O)(Oc1ccc(-c2ccc(Cn3cc4nc(-c5cccc(F)c5F)nc-4cn3)nn2)c(C(F)(F)F)c1)C(F)(F)F [Compound 353, Trifluoro-methanesulfonic acid 4-{6-[2-(2,3-difluoro-phenyl)-imidazo[4,5-d]pyridazin-5-ylmethyl]-pyridazin-3-yl}-3-trifluoromethyl-phenyl ester], the EC50 was 1.19 µM. Molecule Fc1cccc(-c2nc3cnn(Cc4ccc(-c5ccc(-c6cccs6)cc5C(F)(F)F)nn4)cc-3n2)c1F [Compound 354, 2-(2,3-Difluoro-phenyl)-5-[6-(4-thiophen-2-yl-2-trifluoromethyl-phenyl)-pyridazin-3-ylmethyl]-5H-imidazo[4,5-d]pyridazine] has an EC50 of 0.225 µM. In the case of Fc1cccc(-c2nc3cnn(Cc4ccc(N5CCOCC5)nn4)cc-3n2)c1F [Compound 355, 2-(2,3-Difluoro-phenyl)-5-(6-morpholin-4-yl-pyridazin-3-ylmethyl)-5H-imidazo[4,5-d]pyridazine], the EC50 is reported as ≥ 50 µM. COc1ccc(-c2ccc(Cn3cc4nc(-c5cccc(F)c5F)nc-4cn3)cc2N)c(C(F)(F)F)c1 [Compound 356, 4-[2-(2,3-Difluoro-phenyl)-imidazo[4,5-d]pyridazin-5-ylmethyl]-4′-methoxy-2′-trifluoromethyl-biphenyl-2-ylamine] was tested, and the EC50 was 0.1 µM. For CCCOc1ccc(-c2ccc(Cn3cc4nc(-c5cccc(F)c5F)nc-4cn3)cc2N)cc1 [Compound 357, 4-[2-(2,3-Difluoro-phenyl)-imidazo[4,5-d]pyridazin-5-ylmethyl]-4′-propoxy-biphenyl-2-ylamine], the EC50 was ≥ 50 µM. With COc1ccc(-c2ccc(Cn3cc4nc(-c5cccc(F)c5F)nc-4cn3)nc2N)c(C(F)(F)F)c1 [Compound 358, 6-[2-(2,3-Difluoro-phenyl)-imidazo[4,5-d]pyridazin-5-ylmethyl]-3-(4-methoxy-2-trifluoromethyl-phenyl)-pyridin-2-ylamine] the EC50 was 0.291 µM. Work on COc1ccc(-c2ccc(Cn3cc4nc(-c5cccc(F)c5F)nc-4cn3)nc2O)c(C(F)(F)F)c1 [Compound 359, 6-[2-(2,3-Difluoro-phenyl)-imidazo[4,5-d]pyridazin-5-ylmethyl]-3-(4-methoxy-2-trifluoromethyl-phenyl)-pyridin-2-ol] yielded an EC50 of 2.23 µM. Nc1nc(-c2ccc(C(F)(F)F)cc2C(F)(F)F)ccc1Cn1cc2nc(-c3cccc(F)c3F)nc-2cn1 [Compound 360, 6-(2,4-Bis-trifluoromethyl-phenyl)-3-[2-(2,3-difluoro-phenyl)-imidazo[4,5-d]pyridazin-5-ylmethyl]-pyridin-2-ylamine] showed an EC50 of 0.011 µM. Molecule Oc1nc(-c2ccc(C(F)(F)F)cc2C(F)(F)F)ccc1Cn1cc2nc(-c3cccc(F)c3F)nc-2cn1 [Compound 361, 6-(2,4-Bis-trifluoromethyl-phenyl)-3-[2-(2,3-difluoro-phenyl)-imidazo[4,5-d]pyridazin-5-ylmethyl]-pyridin-2-ol] has an EC50 of 13.7 µM. CCCOc1ccc(-c2ncc(Cn3cc4nc(-c5ccccc5F)nc-4cn3)cn2)c(C(F)(F)F)c1 [Compound 362, 2-(2-Fluoro-phenyl)-5-[2-(4-propoxy-2-trifluoromethyl-phenyl)-pyrimidin-5-ylmethyl]-5H-imidazo[4,5-d]pyridazine] showed an EC50 of 0.019 µM. With CCCOc1ccc(-c2ncc(Cn3cc4nc(-c5cccc(F)c5F)nc-4cn3)cn2)c(C(F)(F)F)c1 [Compound 363, 2-(2,3-Difluoro-phenyl)-5-[2-(4-propoxy-2-trifluoromethyl-phenyl)-pyrimidin-5-ylmethyl]-5H-imidazo[4,5-d]pyridazine] the EC50 was 0.005 µM. Nc1ccc(-c2ccc(Cn3cc4nc(-c5cccc(F)c5F)nc-4cn3)cn2)c(C(F)(F)F)c1 [Compound 364, 4-{5-[2-(2,3-Difluoro-phenyl)-imidazo[4,5-d]pyridazin-5-ylmethyl]-pyridin-2-yl}-3-trifluoromethyl-phenylamine] was tested, and the EC50 was ≥ 50 µM. Work on Cc1ccc(-c2ccc(Cn3cc4nc(-c5cccc(F)c5F)nc-4cn3)cn2)c(C(F)(F)F)c1 [Compound 376, 2-(2,3-Difluoro-phenyl)-5-[6-(4-methyl-2-trifluoromethyl-phenyl)-pyridin-3-ylmethyl]-5H-imidazo[4,5-d]pyridazine] yielded an EC50 of 0.131 µM.
